According to publication PMC4217095 (Emerging Microbes & Infections, 2014):

Biological target: MDk/W452(H5N8) NA (Influenza A virus, UniProt A0A088CBR8)
Format: biochemical

SMILES | Sensitivity of virus to NA inhibitor (assessment of the IC50)
CCC(CC)[C@H](NC(C)=O)[C@@H]1[C@H](O)[C@@H](C(=O)O)C[C@H]1N=C(N)N [Peramivir, peramivir] | sensitive
CC(=O)N[C@H]1[C@H]([C@H](O)[C@H](O)CO)OC(C(=O)O)=C[C@@H]1N=C(N)N [Zanamivir, zanamivir] | sensitive
